In PMC9457736, “Dual Inhibition of HIV-1 and Cathepsin L Proteases by Sarcandra glabra” (Molecules, 2022):
Where two headings read alike, the source gives them in different places.

Key:
[1] = target: T1, recombinant HIV-1 protease (wild type) (Human immunodeficiency virus type 1 group M subtype B, UniProt P04585); assay: FRET assay of HIV-1 protease inhibition; assay type: biochemical; conditions: for inhibition at 1000 µg/mL / HIV-1 PR Inhibition (%) ± SD at 1.0 (mg/mL): 1.0 mg/mL; for inhibition at 1000 µg/mL / HIV-1 PR Inhibition (%) ± SD at 1.0 (mg/mL) / IC50 ± RSD% HIV-1 PR: n = 3; for inhibition at 1000 µg/mL: read-out: HIV-1 PR Inhibition (%) ± SD at 1.0 (mg/mL)
T1 construct: 8 μL of recombinant HIV-1 protease (wild type); purchased AnaSpec Inc
Experimental: Enzyme activities of HIV-1, Cathepsin L, and renin proteases were determined by a FRET assay, following the manufacturer’s protocol. Briefly, the HIV-1 PR activity was assayed using 384-well microplates with a well volume of 120 μL (Corning Incorporated, Corning, NY, USA). […] Reactions were then initiated by adding 10 μL of the HIV protease substrate (50X dilution with assay buffer). Fluorescence was measured using a EX/Em = 490/520 nm filter module on a Synergy II microplate reader. […] Briefly, 2 μL test compound solutions (0.01~1.0 mg/mL) and 8 µL of human recombinant Cathepsin L protease (200× dilution with DTT-containing assay buffer, final concentration: 0.5 µg/mL) were added in the microplate wells. The microplate was pre-incubated at room temperature for 10 min. The enzymatic reaction was subsequently initiated by adding 10 μL of freshly diluted Cathepsin L substrate solution (100× dilution with assay buffer, final concentration: 0.01 mM) into each well. The microplate was gently shaken for 30 s before being incubated at 37 °C for 30 min. Fluorescence was measured at an emission of 520 nm and excitation of 490 nm. A Cathepsin L inhibitor, (100× dilution with assay buffer, final concentration: 1 µM) was used as a positive control. IC50 values of tested compounds were calculated by Microsoft Office Excel software using three different concentrations.

[2] = target: T2, human recombinant Cathepsin L protease (Homo sapiens, UniProt P07711); assay: FRET assay of Cathepsin L protease inhibition (SensoLyte 520 kit); assay type: biochemical; conditions: for inhibition at 10 µg/mL: read-out: CatL PR Inhibition (%) ± SD at 0.01 (mg/mL)
T2 construct: purchased AnaSpec Inc. SensoLyte 520 Cathepsin L Protease Assay Kit, Lot#: AS72218-1010
T2 sequence (P07711 114-333): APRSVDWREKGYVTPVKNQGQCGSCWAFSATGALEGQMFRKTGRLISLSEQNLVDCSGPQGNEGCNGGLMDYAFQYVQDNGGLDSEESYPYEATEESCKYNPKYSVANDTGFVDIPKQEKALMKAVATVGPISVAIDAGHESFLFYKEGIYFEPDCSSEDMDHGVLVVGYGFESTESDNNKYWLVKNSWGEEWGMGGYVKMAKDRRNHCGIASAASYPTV
Experimental: Enzyme activities of HIV-1, Cathepsin L, and renin proteases were determined by a FRET assay, following the manufacturer’s protocol. Briefly, the HIV-1 PR activity was assayed using 384-well microplates with a well volume of 120 μL (Corning Incorporated, Corning, NY, USA). Then, 8 μL of recombinant HIV-1 protease (wild type, NCBI accessiob: NC-001802, final concentration: 0.01 mg/mL (80 ng/well), AnaSpec Inc., Fremont, San Jose, CA, USA) was mixed with 2 μL of the test compounds (0.01~1.0 mg/mL). Reactions were then initiated by adding 10 μL of the HIV protease substrate (50X dilution with assay buffer). Fluorescence was measured using a EX/Em = 490/520 nm filter module on a Synergy II microplate reader. To evaluate the inhibitory activity of the test compounds towards Cathepsin L protease, fluorimetric SensoLyte^TM 520 Cathepsin L Protease Assay Kit (Lot#: AS72218-1010, AnaSpec Inc. San Jose, CA, USA) was used. Briefly, 2 μL test compound solutions (0.01~1.0 mg/mL) and 8 µL of human recombinant Cathepsin L protease (200× dilution with DTT-containing assay buffer, final concentration: 0.5 µg/mL) were added in the microplate wells. The microplate was pre-incubated at room temperature for 10 min. The enzymatic reaction was subsequently initiated by adding 10 μL of freshly diluted Cathepsin L substrate solution (100× dilution with assay buffer, final concentration: 0.01 mM) into each well. The microplate was gently shaken for 30 s before being incubated at 37 °C for 30 min. Fluorescence was measured at an emission of 520 nm and excitation of 490 nm. A Cathepsin L inhibitor, (100× dilution with assay buffer, final concentration: 1 µM) was used as a positive control. IC50 values of tested compounds were calculated by Microsoft Office Excel software using three different concentrations.

| HIV-1 PR Inhibition (%) ± SD at 1.0 (mg/mL) ([1]; listed as 3,4-dicaffeoylquinic acid) | Compound | inhibition at 1000 µg/mL [1] | inhibition at 10 µg/mL ([2]; 0.01 mg/mL, n = 3) | inhibition of CatL PR (in words) [2] | inhibition at 10 µg/mL [2] | IC50 [1] | HIV-1 PR Inhibition (%) ± SD at 1.0 (mg/mL) [1] | IC50 ± RSD% HIV-1 PR [1] |
| --- | --- | --- | --- | --- | --- | --- | --- | --- |
|  | C[N+](C)(C)CC(=O)O [Compound 1, Betaine] | 8.95 ± 4.61% | -15.5 ± 5.76% |  |  |  |  |  |
|  | O=C(O)[C@]1(O)C[C@@H](O)[C@@H](O)[C@H](O)C1 [Compound 2, D-(-)-Quinic acid] | -20.1 ± 2.61% |  | no inhibition | -0.32 ± 8.61% |  |  |  |
|  | COc1ccc(C(C)=O)c(O)c1 [Compound 3, Paeonol] | -12.6 ± 0.26% | -15 ± 0.56% |  |  |  |  |  |
|  | O=C(O)c1ccc(O)c(O)c1 [Compound 4, Protocatechuic acid] | 47.9 ± 1.82% |  |  | 42.1 ± 2.25% |  |  |  |
|  | O=C(/C=C/c1ccc(O)c(O)c1)O[C@@H]1C[C@](O)(C(=O)O)C[C@@H](O)[C@H]1O [Compound 5, Chlorogenic acid] |  | 40.8 ± 2.54% |  |  |  |  |  |
|  | O=c1ccc2ccc(O)cc2o1 [Compound 6, 7-Hydroxycoumarine] | 28.9 ± 4.41% | 22.6 ± 0.53% |  |  |  |  |  |
|  | O=C(O)/C=C/c1ccc(O)c(O)c1 [Compound 7, Caffeic acid] | > 50% | 32.1 ± 1.68% |  |  | 2660 µM | 65.9 ± 0.00% | 0.48 ± 0.124% |
|  | COc1cc2ccc(=O)oc2c(O)c1O [Compound 8, Fraxetin] | 24.1 ± 6.7% | 15 ± 5.25% |  |  |  |  |  |
|  | C[C@@H]1O[C@@H](O[C@H]2C(=O)c3c(O)cc(O)cc3O[C@@H]2c2ccc(O)c(O)c2)[C@H](O)[C@H](O)[C@H]1O [Compound 9, Astilbin] | > 50% | -24.7 ± 8.14% |  |  |  | 68.4 ± 5.45% | 0.54 ± 4.34% |
|  | COc1cc2ccc(=O)oc2c(OC)c1O [Compound 10, Isofraxidin] | -2.09 ± 8.57% | 27 ± 2.37% |  |  |  |  |  |
| more than 50% | O=C(C=Cc1ccc(O)c(O)c1)OC1CC(O)(C(=O)O)CC(O)C1OC(=O)C=Cc1ccc(O)c(O)c1 (stereo not shown) [Compound 11, 3,4-Dicaffeoylquinic acid] |  | -31.3 ± 6.24% | no inhibition |  | 252 µM | 86.1 ± 3.92% | 0.13 ± 2.84% |
|  | O=C(/C=C/c1ccc(O)c(O)c1)O[C@H](Cc1ccc(O)c(O)c1)C(=O)O [Compound 12, Rosmarinic acid] |  | 19.2 ± 1.7% |  |  |  |  |  |
|  | COc1cc(O)cc2c1C(=O)C[C@@H](c1ccccc1)O2 [Compound 13, Alpinetin] | > 50% | 11.9 ± 8.99% |  |  |  | 62.3 ± 0.96% | 0.62 ± 3.44% |
|  | C[C@@H]1CC[C@H]2[C@@H](C)C(=O)O[C@@H]3O[C@@]4(C)CC[C@@H]1[C@]32OO4 [Compound 14, Artemisinin] | > 50% | -1.1 ± 0.52% |  |  |  | 50.8 ± 0.58% | 0.95 ± 2.77% |
